Columns and labels:
Test in all cases: relative viability (nuclei count vs DMSO), 5 days (fraction); higher = more cells survive
[1] = compound: CC1=CC(=CC=C1)NC2=NC(=CS2)C3=CC=NC=C3
Procedure, shortened: (§1)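 In 1536-well plates, lung cancer cell lines rested overnight at 37 °C before five library-drug doses (not always all listed), √10 apart, were pinned onto vehicle-anchored plates. Nuclei were counted with MetaXpress from 4× Hoechst images taken after 5 days without medium change. Viability compares treated-well with vehicle-well nuclei as a median over plates, and plates needed control CV below 25% plus at least one doubling to pass.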

[2] = compound: Cc1ccc(NC(=O)c2ccc(CN3CCN(C)CC3)cc2)cc1Nc1nc(-c2cccnc2)cs1 [Masitinib]
Procedure, shortened: as §1

[3] = compound: CC1=CC(=CC=C1)NC2=NC(=CS2)C3=CC=NC=C3 + CC1(C)CCC(c2ccc(Cl)cc2)=C(CN2CCN(c3ccc(C(=O)NS(=O)(=O)c4ccc(N[C@H](CCN5CCOCC5)CSc5ccccc5)c(S(=O)(=O)C(F)(F)F)c4)cc3)CC2)C1 [Navitoclax] (partner 0.5 µM)
Procedure, shortened: (§2)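 Cells from lung cancer lines were seeded into 1536-well plates and, one day later, dosed by pin tool. Treatments were either a single drug or a fixed dose of an anchor drug with five library-drug doses (not always all listed) in √10 steps. After 5 days, nuclei were stained in a one-step fixation (final 0.05% Triton X-100, 1% formaldehyde, 1 ug/ml Hoechst) and counted on 4× images, and relative viability is the treated-to-vehicle nuclei ratio, as the median of duplicate plates.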

[4] = compound: CC1=CC(=CC=C1)NC2=NC(=CS2)C3=CC=NC=C3 + COc1cc2c(Oc3ccc(NC(=O)C4(C(=O)Nc5ccc(F)cc5)CC4)cc3F)ccnc2cc1OCCCN1CCOCC1 [Foretinib] (partner 0.25 µM)
Procedure, shortened: as §2

Cell Line	relative viability ([1]; 0.08 µM)	relative viability ([1]; 0.253 µM)	relative viability ([1]; 0.8 µM)	relative viability ([1]; 2.53 µM)	relative viability ([1]; 8 µM)	relative viability ([2]; 0.01 µM)	relative viability ([2]; 0.03162 µM)	relative viability ([2]; 0.1 µM)	relative viability ([2]; 0.3162 µM)	relative viability ([2]; 1 µM)	relative viability ([3]; first compound 0.08 µM)	relative viability ([3]; first compound 0.253 µM)	relative viability ([3]; first compound 0.8 µM)	relative viability ([3]; first compound 2.53 µM)	relative viability ([3]; first compound 8 µM)	relative viability ([4]; first compound 0.08 µM)	relative viability ([4]; first compound 0.253 µM)	relative viability ([4]; first compound 0.8 µM)	relative viability ([4]; first compound 2.53 µM)	relative viability ([4]; first compound 8 µM)
NCI-H1651	0.95	0.918	1.03	0.87	0.963	0.899	0.97	0.954	0.988	0.971	0.894	1.2	0.948	1.05	0.899	0.825	0.736	0.72	0.917	0.862
NCI-H1395	0.765	0.734	0.898	0.729	0.766	0.882	0.965	1.04	0.967	0.85	0.984	1.1	1.04	0.971	0.993	0.859	0.918	0.933	0.958	1
LU99A	0.877	0.917	0.972	0.997	0.956	1.03	0.94	1.09	1.06	0.916	–	0.861	0.838	0.835	0.978	0.807	0.805	0.803	0.915	0.941
LXF-289	0.942	0.987	0.974	0.974	0.915	0.806	0.973	0.941	1	1.01	0.944	0.921	0.939	0.908	0.822	0.926	1.03	0.994	0.938	0.823
NCI-H1437	0.976	0.882	0.938	0.874	0.856	0.838	0.93	1.06	0.986	0.85	1.04	1.06	1.04	1.13	0.96	1.16	1.21	1.11	1.27	1.12
HCC-78	0.781	0.789	0.811	0.817	0.971	0.891	0.814	0.956	0.789	0.902	0.67	0.883	0.841	0.746	0.788	–	0.484	0.558	0.537	0.568
NCI-H1650	0.715	0.841	0.962	0.687	0.434	0.798	0.979	0.871	0.885	0.89	1.07	0.938	0.935	1.13	0.811	1.13	1.13	1.04	1.22	1.13
HCC-15	0.916	0.936	1.02	0.915	0.807	0.774	0.983	0.836	0.962	0.959	0.698	0.661	0.65	0.615	0.507	0.942	1.01	0.928	1.07	0.922
EKVX	0.884	0.933	0.795	0.89	0.82	0.627	0.86	0.805	0.717	0.927	0.901	0.837	0.676	0.923	0.98	0.941	0.726	0.578	0.733	0.75
NCI-H2126	0.881	0.864	0.893	0.824	0.863	0.908	0.996	0.978	0.847	0.931	0.828	0.912	0.849	0.909	0.778	0.858	1.11	1.08	0.982	0.862
LK-2	0.816	0.98	1.27	0.793	1.41	1.09	0.89	1.23	1.19	1.08	0.917	0.958	0.901	–	1.46	–	1.18	1.36	–	1.67
COR-L23	0.981	0.986	0.926	0.877	0.989	1.02	0.969	1.06	0.984	0.981	0.982	0.804	0.722	0.965	0.973	0.986	0.945	0.886	0.864	0.87
PC-14	0.94	0.899	0.943	0.917	0.766	0.916	0.943	1.01	1.01	1.01	0.922	1.01	0.892	0.933	0.439	0.875	0.891	0.889	0.959	0.928
A549	0.888	0.871	0.943	0.929	0.921	0.906	0.953	1.09	1.03	0.856	1.05	1.23	1.19	1.16	0.866	0.882	0.914	0.871	0.866	0.802
A-427	0.864	0.951	0.968	0.859	0.878	–	0.951	0.69	1.08	0.931	0.955	0.962	0.899	–	0.875	1.02	1.08	1.14	0.924	0.707
NCI-H1915	0.937	0.961	0.962	0.938	0.89	–	0.999	–	1	0.977	0.747	0.791	0.84	0.779	0.811	1.05	1.1	1.06	1.07	0.977

— the supplement of paper PMC10307832
